Test results from patent US9169252B2 (BRISTOL-MYERS SQUIBB COMPANY, priority 2014, dated 2015).
Where two headings read alike, the source gives them in different places.

Assays:
IRAK4 = IRAK4 (Homo sapiens (Human), UniProt Q9NWZ3); assay: IRAK4 Inhibition Assay; format: biochemical; conditions: IRAK4 Inhibition Assay; ATP 500 μM; read-out: IRAK4 IC50
Method in brief: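 Mobility-shift readout: fluorescent substrate and phosphoproduct resolved electrophoretically on Caliper LabChip 3000 after EDTA quench (35 mM). Enzyme reaction of IRAK4, substrates and test compound ran 60 min at room temperature.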

[1] = system: TLR2 induced IL-6 in peripheral blood mononuclear cells (PBMCs); assay: PBMC TLR2 Induced IL-6 Assay; format: cell-based, human; conditions: PBMC TLR2 Induced IL-6 Assay, lipoteichoic acid stimulation, IL-6 by ELISA; for EC50: read-out: Cell EC50; for IC50: read-out: Cell IC50
Method in brief: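 Lipoteichoic acid at 10 µg/ml served as TLR2 stimulus for 5 hours, following a 30-minute compound pretreatment at 37° C. Cells were Ficoll-isolated human PBMCs, 250000 cells/well, cultured in RPMI plus 10% heat-inactivated FCS.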

Sequence of IRAK4 (Q9NWZ3 whole entry, species assumed): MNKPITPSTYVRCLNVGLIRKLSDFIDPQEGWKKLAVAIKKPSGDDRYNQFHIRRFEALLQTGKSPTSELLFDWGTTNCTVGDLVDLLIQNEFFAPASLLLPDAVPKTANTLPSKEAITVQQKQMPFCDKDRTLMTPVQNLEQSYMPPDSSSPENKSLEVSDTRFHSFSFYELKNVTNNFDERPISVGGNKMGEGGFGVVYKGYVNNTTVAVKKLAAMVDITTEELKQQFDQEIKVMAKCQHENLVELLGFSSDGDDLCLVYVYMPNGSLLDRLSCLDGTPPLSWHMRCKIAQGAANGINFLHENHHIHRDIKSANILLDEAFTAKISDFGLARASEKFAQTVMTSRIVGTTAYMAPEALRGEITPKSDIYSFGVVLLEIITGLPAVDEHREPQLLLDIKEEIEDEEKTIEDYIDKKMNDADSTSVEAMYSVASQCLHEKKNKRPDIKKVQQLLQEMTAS

SMILES	IC50 (IRAK4) [nM]	EC50 ([1]; Homo sapiens, PBMC) [nM]	IC50 ([1]; Homo sapiens, PBMC) [nM]	EC50 [1] [nM]
CC(C)Nc1cc(-n2ccc3cc(C#N)cnc32)ncc1C(=O)NC1CCc2nc(N)sc2C1 (stereo not drawn) [Example 73, N-(2-amino-4,5,6,7-tetrahydrobenzo[d]thiazol-6-yl)-6-(5-cyano-1H-pyrrolo[2,3-b]pyridin-1-yl)-4-(isopropylamino)nicotinamide]	13.1	189	–	–
CC(C)Nc1cc(-n2ccc3cc(C#N)cnc32)ncc1C(=O)NC[C@@H](F)C(C)(C)O [Example 75, (R)-6-(5-cyano-1H-pyrrolo[2,3-b]pyridin-1-yl)-N-(2-fluoro-3-hydroxy-3-methylbutyl)-4-(isopropylamino)nicotinamide]	7.6	–	22	–
CNC(=O)[C@H]1CC[C@H](NC(=O)c2cnc(-n3ccc4cc(C#N)ccc43)cc2NC(C)C)CC1 [Example 79, 6-(5-Cyano-1H-indol-1-yl)-4-(isopropylamino)-N-((trans)-4-(methylcarbamoyl)cyclohexyl)nicotinamide]	11.6	436	436	–
CNC(=O)[C@H]1CC[C@H](NC(=O)c2cnc(-n3ccc4cncnc43)cc2NC(C)C)CC1 [Example 81, 4-(isopropylamino)-N-((trans)-4-(methylcarbamoyl)cyclohexyl)-6-(7H-pyrrolo[2,3-d]pyrimidin-7-yl)nicotinamide]	14.2	121	565	–
CNC(=O)[C@H]1CC[C@H](NC(=O)c2cnc(-n3ccc4cncnc43)cc2NC2CCOCC2)CC1 [Example 82, N-((trans)-4-(methylcarbamoyl)cyclohexyl)-6-(7H-pyrrolo[2,3-d]pyrimidin-7-yl)-4-((tetrahydro-2H-pyran-4-yl)amino)nicotinamide]	4.4	166	578	–
CC(=O)N[C@H]1CC[C@H](NC(=O)c2cnc(-n3ccc4cncnc43)cc2NC2CCOCC2)CC1 [Example 83, N-((trans)-4-acetamidocyclohexyl)-6-(7H-pyrrolo[2,3-d]pyrimidin-7-yl)-4-((tetrahydro-2H-pyran-4-yl)amino)nicotinamide]	4.9	443	777	–
CC(=O)N[C@H]1CC[C@H](NC(=O)c2cnc(-n3ccc4cncnc43)cc2NC(C)C)CC1 [Example 84, N-((trans)-4-acetamidocyclohexyl)-4-(isopropylamino)-6-(7H-pyrrolo[2,3-d]pyrimidin-7-yl)nicotinamide]	9.3	2000	2010	–
CNC(=O)[C@H]1CC[C@H](NC(=O)c2cnc(-n3ccc4cc(C#N)cnc43)cc2NC2CC2)CC1 [Example 85, 6-(5-cyano-1H-pyrrolo[2,3-b]pyridin-1-yl)-4-(cyclopropylamino)-N-((trans)-4-(methylcarbamoyl)cyclohexyl) nicotinamide]	13.3	523	–	–
CC(=O)N[C@H]1CC[C@H](NC(=O)c2cnc(-n3ccc4cc(C#N)cnc43)cc2NC2CCOCC2)CC1 [Example 88, N-((trans)-4-acetamidocyclohexyl)-6-(5-cyano-1H-pyrrolo[2,3-b]pyridin-1-yl)-4-((tetrahydro-2H-pyran-4-yl)amino)nicotinamide]	7.1	345	–	–
CNC(=O)[C@H]1CC[C@H](NC(=O)c2cnc(-n3ccc4cc(C#N)cnc43)cc2NCC(C)(C)O)CC1 [Example 93, 6-(5-cyano-1H-pyrrolo[2,3-b]pyridin-1-yl)-4-((2-hydroxy-2-methylpropyl)amino)-N-((trans)-4-(methylcarbamoyl)cyclohexyl) nicotinamide]	8.4	–	–	562
COC(=O)N[C@H]1CC[C@H](NC(=O)c2cnc(-n3ccc4cc(C#N)cnc43)cc2NC(C)C)CC1 [Example 97, methyl((trans)-4-(6-(5-cyano-1H-pyrrolo[2,3-b]pyridin-1-yl)-4-(isopropylamino)nicotinamido)cyclohexyl)carbamate]	4.9	108	–	–
CC(C)Nc1cc(-n2ccc3cc(C#N)cnc32)ncc1C(=O)N[C@H]1CC[C@](C)(O)CC1 [Example 99, 6-(5-cyano-1H-pyrrolo[2,3-b]pyridin-1-yl)-N-((trans)-4-hydroxy-4-methylcyclohexyl)-4-(isopropylamino)nicotinamide]	4.6	223	–	–
CS[C@H]1CC[C@H](NC(=O)c2cnc(-n3ccc4cc(C#N)cnc43)cc2NC(C)C)CC1 [Example 101, 6-(5-Cyano-1H-pyrrolo[2,3-b]pyridin-1-yl)-4-(isopropylamino)-N-((trans)-4-(methylthio)cyclohexyl)nicotinamide]	7.8	112	–	–

Continued, in another order:

IC50 (IRAK4) [nM]	SMILES	EC50 ([1]; Homo sapiens, PBMC) [nM]	IC50 ([1]; Homo sapiens, PBMC) [nM]	EC50 [1] [nM]
1.5	CC(C)(O)[C@H](F)CNC(=O)c1cnc(-n2ccc3cc(C#N)cnc32)cc1Nc1cccc(CO)c1 [Example 71, (R)-6-(5-cyano-1H-pyrrolo[2,3-b]pyridin-1-yl)-N-(2-fluoro-3-hydroxy-3-methylbutyl)-4-((3-(hydroxymethyl)phenyl)amino)nicotinamide]	28	–	–
2	CC(F)[C@H](C)Nc1cc(-n2ccc3cc(C#N)cnc32)ncc1C(=O)NC[C@@H](F)C(C)(C)O (stereo partly drawn) [Example 72, 6-(5-cyano-1H-pyrrolo[2,3-b]pyridin-1-yl)-N—((R)-2-fluoro-3-hydroxy-3-methylbutyl)-4-(((2S)-3-fluorobutan-2-yl)amino) nicotinamide]	72	–	–
4.3	CC(C)Nc1cc(-n2ccc3cccnc32)ncc1C(=O)NC[C@@H](F)C(C)(C)O [Example 74, (R)—N-(2-fluoro-3-hydroxy-3-methylbutyl)-4-(isopropylamino)-6-(1H-pyrrolo[2,3-b]pyridin-1-yl)nicotinamide]	–	531	–
2.6	CC(C)(O)CNc1cc(-n2ccc3cc(C#N)cnc32)ncc1C(=O)NC[C@@H](F)C(C)(C)O [Example 77, (R)-6-(5-cyano-1H-pyrrolo[2,3-b]pyridin-1-yl)-N-(2-fluoro-3-hydroxy-3-methylbutyl)-4-((2-hydroxy-2-methylpropyl)amino)nicotinamide]	–	161	–
2.9	CC(CF)Nc1cc(-n2ccc3cc(C#N)cnc32)ncc1C(=O)NC[C@@H](F)C(C)(C)O (stereo partly drawn) [Example 78, 6-(5-cyano-1H-pyrrolo[2,3-b]pyridin-1-yl)-N—((R)-2-fluoro-3-hydroxy-3-methylbutyl)-4-((1-fluoropropan-2-yl)amino)nicotinamide]	–	63	–
1.1	CNC(=O)[C@H]1CC[C@H](NC(=O)c2cnc(-n3ccc4cc(C#N)cnc43)cc2NC(C)C)CC1 [Example 80, 6-(5-cyano-1H-pyrrolo[2,3-b]pyridin-1-yl)-4-(isopropylamino)-N-((trans)-4-(methylcarbamoyl)cyclohexyl)nicotinamide]	167	79	–
1.9	CC(=O)N[C@H]1CC[C@H](NC(=O)c2cnc(-n3ccc4cc(C#N)cnc43)cc2NC2CC2)CC1 [Example 87, N-((trans)-4-acetamidocyclohexyl)-6-(5-cyano-1H-pyrrolo[2,3-b]pyridin-1-yl)-4-(cyclopropylamino)nicotinamide]	63	–	–
3.3	CNC(=O)[C@H]1CC[C@H](NC(=O)c2cnc(-n3ccc4cc(C#N)cnc43)cc2N[C@@H](C)CO)CC1 [Example 89, 6-(5-cyano-1H-pyrrolo[2,3-b]pyridin-1-yl)-4-(((S)-1-hydroxypropan-2-yl)amino)-N-((1r,4S)-4-(methylcarbamoyl)cyclohexyl)nicotinamide]	90	–	–
1.9	CC(C)Nc1cc(-n2ccc3cc(C#N)cnc32)ncc1C(=O)N[C@H]1CC[C@H](C(=O)NC(C)C)CC1 [Example 90, 6-(5-cyano-1H-pyrrolo[2,3-b]pyridin-1-yl)-4-(isopropylamino)-N-((trans)-4-(isopropylcarbamoyl)cyclohexyl) nicotinamide]	41	–	–
2	CC(C)Nc1cc(-n2ccc3cc(C#N)cnc32)ncc1C(=O)N[C@H]1CC[C@H](C(=O)NC2CC2)CC1 [Example 91, 6-(5-cyano-1H-pyrrolo[2,3-b]pyridin-1-yl)-N-((trans)-4-(cyclopropylcarbamoyl)cyclohexyl)-4-(isopropylamino)nicotinamide]	32	–	–
1.7	CCNC(=O)[C@H]1CC[C@H](NC(=O)c2cnc(-n3ccc4cc(C#N)cnc43)cc2NC(C)C)CC1 [Example 92, 6-(5-cyano-1H-pyrrolo[2,3-b]pyridin-1-yl)-N-((trans)-4-(ethylcarbamoyl)cyclohexyl)-4-(isopropylamino)nicotinamide]	79	–	–
1.4	CC(C)Nc1cc(-n2ccc3cc(C#N)cnc32)ncc1C(=O)N[C@H]1CC[C@H](C(C)(C)O)CC1 [Example 96, 6-(5-cyano-1H-pyrrolo[2,3-b]pyridin-1-yl)-N-((trans)-4-(2-hydroxypropan-2-yl)cyclohexyl)-4-(isopropylamino)nicotinamide]	38	–	–
3.3	CC(C)Nc1cc(-n2ccc3cc(C#N)cnc32)ncc1C(=O)N[C@H]1CC[C@H](O)CC1 [Example 98, 6-(5-cyano-1H-pyrrolo[2,3-b]pyridin-1-yl)-N-((trans)-4-hydroxycyclohexyl)-4-(isopropylamino)nicotinamide]	176	–	–
2.5	CCNc1cc(-n2ccc3cc(C#N)cnc32)ncc1C(=O)N[C@H]1CC[C@H](C(C)(C)O)CC1 [Example 100, 6-(5-cyano-1H-pyrrolo[2,3-b]pyridin-1-yl)-4-(ethylamino)-N-((trans)-4-(2-hydroxypropan-2-yl)cyclohexyl)nicotinamide]	95	–	–
